Reference: ChEMBL document CHEMBL1268895, “Synthesis of exotic polycycles such as cyclooctatrienes and fenestrenes with differential pro-apoptotic activities on human TRAIL-resistant metastatic cell lines” (Bioorg Med Chem Lett, 2010)

What was measured:
[1] = test system: SW-620; assay: Induction of apoptosis in TRAIL-resistant human SW620 cells assessed as pro-apoptotic cells at 50 uM after 24 hrs by annexin-V staining; type: functional
[2] = test system: THP-1; assay: Induction of apoptosis in TRAIL-resistant human THP1 cells assessed as pro-apoptotic cells at 50 uM after 24 hrs by annexin-V staining; type: functional
[3] = test system: THP-1; assay: Induction of apoptosis in TRAIL-resistant human THP1 cells assessed as inhibition of caspase-8 activity; type: functional
[4] = test system: THP-1; assay: Induction of apoptosis in TRAIL-resistant human THP1 cells after 24 hrs by annexin-V staining; type: functional, cell-based; settings: THP-1, 24 h

SMILES | Activity [1] [%] | Activity [2] [%] | inhibition (INH) [3] [%] | EC50 [4] [µM]
CCCCC1(CCCC)O[C@H]2C=C(CO)[C@]3(O)[C@@H]4OC(C)(C)O[C@@]45CCC[C@@H]4[C@@H]1[C@@H]2[C@@]453 | 5 | 15 |  | 
CCCCCC1(CCCCC)O[C@H]2C=C(CO)[C@]3(O)[C@@H]4OC(C)(C)O[C@@]45CCC[C@@H]4[C@@H]1[C@@H]2[C@@]453 | 5 | 5 |  | 
CC(C)CC1(CC(C)C)O[C@H]2C=C(CO)[C@]3(O)[C@@H]4OC(C)(C)O[C@@]45CCC[C@@H]4[C@@H]1[C@@H]2[C@@]453 | 13 | 83 |  | 
CC1(C)O[C@@H]2[C@]3(CCC[C@@H]4[C@H]5CO[C@H]6C=C(CO)[C@@]2(O)[C@]43[C@@H]56)O1 | 4 | 94 |  | 
CC1(C)O[C@H]2C3=C4[C@@H](CCCC[C@@]42O1)[C@H](C(C)(C)O)/C=C\C=C/3CO | 16 | 2 |  | 
CC1(C)O[C@H]2C3=C4[C@@H](CCCC[C@@]42O1)[C@H](C1(O)CCCC1)/C=C\C=C/3CO | 22 | 2 |  | 
CC1(C)O[C@H]2C3=C4[C@@H](CCCC[C@@]42O1)[C@H](C1(O)CCCCC1)/C=C\C=C/3CO | 17 | 2 |  | 
CC(C)CC(O)(CC(C)C)[C@@H]1/C=C\C=C(\CO)C2=C3[C@H]1CCCC[C@@]31OC(C)(C)O[C@@H]21 | 68 | 36 | 90 | 
CCCCCC[C@@H]1/C=C\C=C(\CO)C2=C3[C@H]1CCCC[C@@]31OC(C)(C)O[C@@H]21 | 70 | 20 | 90 | 
CC1(C)O[C@H]2C3=C4[C@@H](CCCC[C@@]42O1)[C@H](CCc1ccccc1)/C=C\C=C/3CO | 23 | 10 |  | 
CC1(C)O[C@H]2C3=C4[C@@H](CCC[C@@]42O1)[C@H](C(C)(C)O)/C=C\C=C/3CO | 12 | 2 |  | 
CC1(C)O[C@@H]2C3=C(/C(CO)=C\C=C/[C@@H](C4(O)CCCC4)[C@@H]3c3ccccc3)[C@@H]2O1 | 12 | 3 |  | 
CC1(C)O[C@@H]2C3=C(/C(CO)=C\C=C/[C@@H](C4(O)CCCCC4)[C@@H]3c3ccccc3)[C@@H]2O1 | 10 | 3 |  | 
CCCCCC[C@@H]1/C=C\C=C(\CO)C2=C([C@H]3OC(C)(C)O[C@@H]23)[C@H]1c1ccccc1 | 70 | 97 |  | 52.9
CC1(C)O[C@@H]2[C@]3(CCC[C@@H]4[C@@H]5[C@H]6[C@H](C=C(CO)[C@@]2(O)[C@]643)OC5(C)C)O1 | 4 | 29 |  | 
CC1(C)O[C@@H]2C3=C(/C(CO)=C\C=C/[C@@H](C(C)(C)O)[C@@H]3c3ccccc3)[C@@H]2O1 (relative stereo) | 15 | 2 |  | 
CC(C)CC(O)(CC(C)C)[C@@H]1/C=C\C=C(\CO)C2=C([C@H]3OC(C)(C)O[C@@H]23)[C@H]1c1ccccc1 (relative stereo) | 66 | 97 |  | 32.4
CC1(C)O[C@@H]2C3=C(/C(CO)=C\C=C/[C@@H](CCc4ccccc4)[C@@H]3c3ccccc3)[C@@H]2O1 (relative stereo) | 58 | 98 |  | 49.3
CC1=C(O)C(=O)C=C2C1=CC=C1[C@@]2(C)CC[C@@]2(C)[C@@H]3C[C@](C)(C(=O)O)CC[C@]3(C)CC[C@]12C [CELASTROL] | 99 | 99 | 90 | 15
